Entries after “also recorded” stand apart in the source; their conditions may differ.
How the values were obtained:
Rats = assay: Observation of rats over 48 hours after oral dosing; type: in vivo
Procedure: (§1) Bioavailability: One gram samples of each of the above iron vanillin chelates and ferrous sulfate sales were administered orally to rats as a slurry consisting of one gram of sample contained in 4 ml of water. The samples were given via a syringe fitted with a balled needle and injected into the stomach of the animals. Each one gram sample of 15% iron would deliver 150 mg of Fe which is ten times the recommended daily allowance of iron for a human being of average size. Obviously, such a dosage is many times higher than required for the test animals considering that the rats weighed an average of about 125 grams each. One sample of two grams of chelate suspended as a slurry in 8 ml of water was found too be too much volume and overfilled the stomach of the rat resulting in the loss of some of the dosage.
(§2) The animals were observed over a two day (48 hour) period and their urine and feces were collected. At the end of the 48 hour period the animals were sacrificed and blood samples were taken.

[1] = Iron excretion after oral dosing, sample weighed in grams (Table 2, headed Urine; evidently feces); type: in vivo, rats; settings: for Urine: Total Mg Fe (per Total Gm Sample): oral, one gram sample of 15% iron
Procedure: as §1, §2
(§3) There follows a comparison of the urine, feces and blood tests taken from the rats at 24 and 48 hours post dosage.

[2] = Iron excretion in urine after oral dosing, sample in ml (Table 3); type: in vivo, rats; settings: one gram sample of 15% iron
Procedure: as §1, §2, §3

time without food or water consumption post dosage (Rats; one gram sample of 15% iron, oral): approximately 26 hours
time to hematuria following dosage (Rats; one of the ferrous sulfate fed rats): ≤ 2.5 h
Urine: Total Mg Fe (per Total Gm Sample) ([1]; 24 hours): 1.18 Mg Fe
Urine: Total Mg Fe (per Total Gm Sample) ([1]; 48 hours): 61.6 Mg Fe
Urine: Total Mg Fe (per Total Ml Sample) ([2]; 24 hours): 0.020 Mg Fe
Urine: Total Mg Fe (per Total Ml Sample) ([2]; 48 hours): 0.010 Mg Fe
Substance: ferrous sulfate [FeSO4]
appearance and behavior of rats (Rats; 48 hour period, one gram sample of 15% iron, oral): appeared listless and produced little urine and feces; also recorded: listless, non-reactive, retired and demonstrated abnormal breathing behavior
excretion of iron in the feces ([1]; after 48 hours, versus iron vanillate): much higher excretion of iron in the feces
